Results as given in patent US6555501B1, “4-trifluoromethyl-3-oxazolylpyridines, processes for their preparation, compositions comprising them and their use as pesticides” (Hoechst Schering AgrEvo GmbH, priority 1998, dated 2003).

Assays:
Assay type in all cases: in vivo
[1] = tested on: black bean aphids (Aphis fabae); assay: Black bean aphid dip test on broad bean (plants and aphids dipped in the preparation); conditions: 300 ppm (content of active compound), Vicia faba plants and aphids dipped 5 seconds, after 3 and 6 days storage, read-out: mortality among the aphids
Procedure: Germinated broad bean seeds (Vicia faba) with radicles were transferred into brown glass bottles filled with tap water and subsequently populated with approximately 100 black bean aphids (Aphis fabae). Plants and aphids were then dipped for 5 seconds into an aqueous solution of the formulated preparation to be examined. After the solution had dripped off, plants and animals were kept in a climatized chamber (16 hours of light/day, 25° C., 40-60% relative atmospheric humidity). After 3 and 6 days storage, the effect of the preparation on the aphids was determined. At a concentration of 300 ppm (based on the content of active compound), the preparations of Example Nos. 1/37, 1/78, 1/136, 1/94, 1/174, 1/14, 1/125, 1/187, 1/17, 1/84, 1/52, 1/82, 1/70, 3/74, 1/54, 1/81, 1/42, 3/161, 1/186 effected a mortality of 90-100% among the aphids. (The active compounds are numbered with the Table/No. in the table).

[2] = tested on: black bean aphids (Aphis fabae); assay: Root-systemic activity against black bean aphids on broad bean; conditions: 30 ppm (content of active compound), 4 ml solution pipetted into the bottle with Vicia faba, after 3 and 6 days storage, read-out: mortality among the aphids by root-systemic action
Procedure: Germinated broad bean seeds (Vicia faba) with radicles were transferred into brown glass bottles filled with tap water. Four milliliters of an aqueous solution of the formulated preparation to be examined were pipetted into the brown glass bottle. The broad bean was subsequently heavily populated with approximately 100 black bean aphids (Aphis fabae). Plants and animals were then stored in a climatized chamber (16 hours of light/day, 25° C., 40-60% relative atmospheric humidity). After 3 and 6 days storage, the root-systemic activity of the preparation on the aphids was determined. At a concentration of 30 ppm (based on the content of active compound), the preparations of Example Nos. 1/53, 1/26, 1/37, 1/78, 1/136, 1/56, 1/94, 1/174, 1/14, 1/187, 1/84, 1/52, 1/82, 1/70, 1/32, 3/74, 1/54, 1/81, 1/42, 3/227, 3/161 effected a mortality of 90-100% among the aphids by root-systemic action.

[3] = tested on: larvae (L3 stage) of the rice leafhopper species Nilaparvata lugens; assay: Rice leafhopper test on dipped rice plants; conditions: 144 h, 300 ppm (content of active compound), rice leaves dipped 5 seconds, after 6 days storage, read-out: mortality among the leafhopper larvae
Procedure: The leaves of 12 rice plants having a stem length of 8 cm were dipped for 5 seconds into an aqueous solution of the formulated preparation to be examined. After the solution had dripped off, the rice plants treated in this manner were placed in a Petri dish and populated with approximately 20 larvae (L3 stage) of the rice leafhopper species Nilaparvata lugens. The Petri dish was closed and stored in a climatized chamber (16 hours of light/day, 25° C., 40-60% relative atmospheric humidity). After 6 days storage, the mortality among the leafhopper larvae was determined. At a concentration of 300 ppm (based on the content of active compound), the preparations of Example Nos. 1/53, 1/26, 1/164, 1/174, 1/82, 1/42 effected a mortality of 90-100%.

CCCSCc1cnc(-c2cnccc2C(F)(F)F)o1 [1/136, 5-n-Propylthiomethyl-2-(4-trifluoromethyl-3-pyridyl)-oxazole]
mortality at 300 ppm [1]: 90 to 100%
mortality at 30 ppm [2]: 90 to 100%

O=Cc1cnc(-c2cnccc2C(F)(F)F)o1 [1/164, 5-formyl-2-(4-trifluoromethyl-3-pyridyl)-oxazole]
mortality at 300 ppm [3]: 90 to 100%
